The text below walks through data of EP0358085A1, “(1R,5S,6S)-6-[(R)-1-Hydroxyethyl]-1-methyl-2-[(1-alkyl-1,2,4-triazolium-2-yl)alkyl]-thio-carbapenem-3-carboxylic acid derivatives” (LEDERLE (JAPAN) LTD., priority 1988, dated 1990).

Series [1] concerns the target T1, Swine Kidney Dehydropeptidase-I (DHP-I) (Sus scrofa, UniProt P22412).
T1 construct: made soluble by treatment with butanol and purified by the ammonium sulfate fraction method, thereby producing DHP-I enzyme; from tissue; host or cells: swine kidney
The series can be described thus: Hydrolysis activity against DHP-I enzyme substrate by late assay (decrease in absorbency). In kind it is biochemical. The following applies: final substrate concentration 100µM; 37°C, 10 minutes; pH 7.1. The method, then:
The swine kidney (8 kg) was homogenized and the enzyme protein was allowed to precipitate. After a connective lipid was removed with acetone, the resultant material was made soluble by treatment with butanol and purified by the ammonium sulfate fraction method, thereby producing DHP-I enzyme from a 75 % ammonium sulfate fraction. The DHP-I enzyme was then adjusted to give an enzyme concentration of 25 mg/10 ml (phosphate buffer, pH 7.1), and divided into 1 ml portions. The portions were frozen and stored at -40°C or less until use. Glycyl dehydrophenylalanine (Gl-dh-Ph) and imipenem were employed as control compounds, and they were adjusted in situ each to give a concentration of 117µM with the same sodium phosphate buffer solution. […] The solution was then incubated at 37°C for 10 minutes. The initial velocity of hydrolysis of the substrate was measured from a decrease in absorbency at a particular λmax of each of the substrates. A blank test was conducted in substantially the same manner as above by adding 0.2 ml of the sodium phosphate buffer solution (pH 7.1) to 1.2 ml of the above substrate.

For series [2], the system named is male mice of CrjCD(SD) strain. Briefly: Toxicity study in mice, subcutaneous administration, observation for one week. The following applies: 500 mg/kg, subcutaneously. In kind it is in vivo. The method, then: Toxicological studies were carried out using a group of 10 male mice of CrjCD(SD) strain weighing from 20 to 23 grams. A solution containing the carbapenem compound (11) of the present invention obtained by Example 3 was administered subcutaneously to the mice and subjected to observations for one week.

For series [3], the system named is Pseudomonas aeruginosa IFO 3445. Briefly: Antibacterial test, agar plate dilution method (MIC). It counts as cell-based. The following applies: IFO3445, MH agar, 37°C, 18 hours. Here is the method:
(§1) The antibacterial activities were tested by an agar plate dilution method in accordance with the standard method of The Japanese Chemotherapy Society [Chemotherapy, Vol. 29, 76-79 (1981)].
(§2) A Mueller-Hinton (MH) agar liquid medium of a test microorganism was cultured overnight at 37°C and the resultant culture medium was diluted with a buffered saline gelatin (BSG) solution to contain approximately 10⁶ cells of the test microorganisms per milliliter, and then the diluted solution was inoculated with a micro-planter at the rate of approximately 5 microliters on a MH agar medium containing a test compound. This medium was then incubated at 37°C for 18 hours. The minimum inhibitory concentration (MIC) is determined as a minimum concentration in which no test microorganism could grow. It is noted here that the test organisms used were all standard strains.

The subject of series [4] is Providencia rettgeri IFO 3850. The description is as above. In kind it is cell-based. The following applies: IFO3850, MH agar, 37°C, 18 hours. The method, then: as §1, §2
The subject of series [5] is Pseudomonas aeruginosa NCTC 10490. Described as above. In kind it is cell-based. The following applies: NCTC10490, MH agar, 37°C, 18 hours. The method, then: as §1, §2
Series [6] deals with Escherichia coli K12 C600. The series is described as above. In kind it is cell-based. The following applies: K12C600, MH agar, 37°C, 18 hours. The method, then:
as §1, §2

Series [7] deals with Staphylococcus aureus FDA 209PJC-1. Described as above. It counts as cell-based. The following applies: FDA209PJC1, MH agar, 37°C, 18 hours. Here is the method:
as §1, §2

For another series, the system named is Proteus vulgaris HX-19. Described as above. In kind it is cell-based. The following applies: HX19, MH agar, 37°C, 18 hours. The method, then:
as §1, §2

Series [8] has as its system Enterobacter aerogenes ATCC1304. Described as above. In kind it is cell-based. The following applies: Klebsiella aerogenes. The method, then: as §1, §2
Series [9] relates to Salmonella enteritidis G14. The description is as above. It counts as cell-based. The following applies: Salmonella enterica. Here is the method: as §1, §2
A further series relates to Proteus vulgaris OX-19. Described as above. It counts as cell-based. The following applies: OX19, MH agar, 37°C, 18 hours. Here is the method: as §1, §2
The subject of series [10] is Streptococcus pyogenes Cook. The description is as above. The following applies: MH agar, 37°C, 18 hours. In kind it is cell-based. Here is the method: as §1, §2
The test system of series [11] is Salmonella paratyphi 1015. The description is as above. In kind it is cell-based. The following applies: Salmonella enterica, MH agar, 37°C, 18 hours. The method, then:
as §1, §2

For series [12], the system named is Escherichia coli NIHJ JC-2. The description is as above. The following applies: NIHJJC2, MH agar, 37°C, 18 hours. In kind it is cell-based. Here is the method:
as §1, §2

The subject of another series is Enterobacter cloacae 963. The description is as above. It counts as cell-based. The following applies: MH agar, 37°C, 18 hours. Here is the method:
as §1, §2

Series [13] deals with Morganella morganii IFO3848. The description is as above. It counts as cell-based. The following applies: MH agar, 37°C, 18 hours. Here is the method:
as §1, §2

In series [14] the test system is Salmonella typhimurium IID971. Described as above. In kind it is cell-based. The following applies: Salmonella enterica, MH agar, 37°C, 18 hours. Here is the method: as §1, §2
Series [15] has as its system Klebsiella pneumoniae PCI-602. The description is as above. In kind it is cell-based. The following applies: PCI602, MH agar, 37°C, 18 hours. The method, then:
as §1, §2

The test system of series [16] is Salmonella schottmuelleri 8006. The series is described as above. It counts as cell-based. The following applies: MH agar, 37°C, 18 hours. Here is the method:
as §1, §2

Series [17] relates to Serratia marcescens IAM1184. The description is as above. It counts as cell-based. The following applies: MH agar, 37°C, 18 hours. Here is the method:
as §1, §2

Series [18] relates to Proteus mirabilis IFO3849. The description is as above. It counts as cell-based. Here is the method:
as §1, §2

Another series relates to Salmonella typhi 901. The series is described as above. In kind it is cell-based. The following applies: Salmonella enterica, 18 h. Here is the method:
as §1, §2

The subject of series [19] is Staphylococcus aureus MS353. The description is as above. In kind it is cell-based. The following applies: MH agar, 37°C, 18 hours. The method, then:
as §1, §2

The test system of series [20] is Micrococcus luteus ATCC9341. The description is as above. It counts as cell-based. The following applies: MH agar, 37°C, 18 hours. Here is the method:
as §1, §2

For series [21], the system named is Bacillus subtilis ATCC6633. The description is as above. In kind it is cell-based. The following applies: MH agar, 37°C, 18 hours. The method, then:
as §1, §2

Series [22] relates to Staphylococcus aureus Terajima. The description is as above. It counts as cell-based. The following applies: MH agar, 37°C, 18 hours. Here is the method:
as §1, §2

The target of series [23] is T1, Swine Kidney Dehydropeptidase-I (DHP-I). Briefly: Stability of test compounds against DHP-I by HPLC. In kind it is in vitro ADME. The following applies: 37°C, 4.5 hours, Substrate Concentration: 100 µM. Here is the method:
The swine kidney (8 kg) was homogenized and the enzyme protein was allowed to precipitate. After a connective lipid was removed with acetone, the resultant material was made soluble by treatment with butanol and purified by the ammonium sulfate fraction method, thereby producing DHP-I enzyme from a 75 % ammonium sulfate fraction. The DHP-I enzyme was then adjusted to give an enzyme concentration of 25 mg/10 ml (phosphate buffer, pH 7.1), and divided into 1 ml portions. The portions were frozen and stored at -40°C or less until use. The test compound was adjusted in situ to give a concentration of 117µM with a 50 mM sodium phosphate buffer solution (pH =7.1). Glycyl dehydrophenylalanine (Gl-dh-Ph) and imipenem were employed as control compounds, and they were adjusted in situ each to give a concentration of 117µM with the same sodium phosphate buffer solution. The test compound according to the present invention and the control compounds were treated in substantially the same manner as (1) above. The incubation, however, was conducted at 37°C for 4.5 hours or for 24 hours. The degree of hydrolysis of the compounds each after the test periods was measured by the HPLC method.

Molecules are shown by their SMILES. In brackets after ≈: the same amount, converted by molar mass. Where two headings read alike, the source gives them in different places.

T1 sequence (P22412 17-384): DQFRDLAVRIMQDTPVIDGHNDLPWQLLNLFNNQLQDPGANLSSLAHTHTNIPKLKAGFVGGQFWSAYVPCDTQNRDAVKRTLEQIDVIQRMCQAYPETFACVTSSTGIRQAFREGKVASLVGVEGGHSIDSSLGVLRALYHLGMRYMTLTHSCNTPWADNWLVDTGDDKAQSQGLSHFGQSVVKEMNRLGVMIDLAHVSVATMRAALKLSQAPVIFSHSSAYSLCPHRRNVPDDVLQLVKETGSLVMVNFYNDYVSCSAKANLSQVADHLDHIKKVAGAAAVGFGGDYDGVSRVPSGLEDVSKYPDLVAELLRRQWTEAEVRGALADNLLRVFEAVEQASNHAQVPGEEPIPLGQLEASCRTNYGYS

For the molecule `NCC(=O)NC(=Cc1ccccc1)C(=O)O` [Gl-dh-Ph, Glycyl dehydrophenylalanine], the “initial velocity of hydrolysis” value in series [1] turned out to be 17.4 µM/min.

By MIC is commonly meant the lowest concentration found to suppress growth. For `C[C@@H](O)[C@H]1C(=O)N2C(C(=O)[O-])=C(SCCn3cnc[n+]3C)[C@H](C)[C@H]12` [Compound (11), (1R,5S,6S)-6-[(R)-1-hydroxyethyl]-1-methyl-2-[2-(1-methyl-1,2,4-triazolium-2-yl)ethyl]thio-carbapenem-3-carboxylate], in series [2], the “toxicity: survival and abnormal observations” value is recorded as “alive without any abnormal observations”. The MIC in series [3] stood at 1.56 µg/mL (≈ 4.43 µM); in series [4] it was 0.05 µg/mL (≈ 0.142 µM); in series [5], 0.78 µg/mL (≈ 2.21 µM); in series [6], 0.78 µg/mL (≈ 2.21 µM); in series [7], 0.1 µg/mL (≈ 0.284 µM); with Proteus vulgaris HX-19, 0.78 µg/mL (≈ 2.21 µM). The MIC in series [8] (Enterobacter aerogenes ATCC1304, MH agar, 37°C, 18 hours, read-out: MIC) was 0.78 µg/mL (≈ 2.21 µM); in [9] (Salmonella enteritidis G14, MH agar, 37°C, 18 hours, read-out: MIC) it was 0.78 µg/mL (≈ 2.21 µM); in the series with Proteus vulgaris OX-19 it was 0.78 µg/mL (≈ 2.21 µM); in series [10], 0.05 µg/mL (≈ 0.142 µM); in [11], 0.78 µg/mL (≈ 2.21 µM); in series [12], 0.1 µg/mL (≈ 0.284 µM). The MIC is 0.1 µg/mL (≈ 0.284 µM) against Enterobacter cloacae 963; 0.39 µg/mL (≈ 1.11 µM) in series [13]; 0.2 µg/mL (≈ 0.568 µM) in series [14]; 0.2 µg/mL (≈ 0.568 µM) in [15]; 0.39 µg/mL (≈ 1.11 µM) in series [16]; 0.2 µg/mL (≈ 0.568 µM) in series [17]. Moreover, the MIC in series [18] (Proteus mirabilis IFO3849, MH agar, 37°C, 18 hours, read-out: MIC) worked out at 1.56 µg/mL (≈ 4.43 µM); with Salmonella typhi 901, 0.05 µg/mL (≈ 0.142 µM); in series [19], 0.05 µg/mL (≈ 0.142 µM); in series [20] it was 0.1 µg/mL (≈ 0.284 µM); in series [21], 0.2 µg/mL (≈ 0.568 µM); in series [22] it was 0.025 µg/mL (≈ 0.0709 µM).

Regarding `C[C@@H](O)[C@H]1C(=O)N2C(C(=O)O)=C(SCCNC=N)C[C@H]12` [Imipenem, imipenem], the “DEGREES OF HYDROLYSIS BY DHP-I” value in [23] worked out at 77.6 µM. Further, the MIC in series [3] came to 0.78 µg/mL (≈ 2.61 µM); in series [4] it was 0.05 µg/mL (≈ 0.167 µM); in [5], 0.39 µg/mL (≈ 1.3 µM); in series [6], 3.13 µg/mL (≈ 10.5 µM); in [7] it was 0.013 µg/mL (≈ 0.0434 µM); against Proteus vulgaris HX-19, 3.13 µg/mL (≈ 10.5 µM). Also, the MIC in series [8] (ATCC1304, 18 h) is 1.56 µg/mL (≈ 5.21 µM); in series [9] (ENTERITIDIS, 18 h), 1.56 µg/mL (≈ 5.21 µM); with Proteus vulgaris OX-19 it was 3.13 µg/mL (≈ 10.5 µM); in [10] it was below 0.006 µg/mL; in series [11], 1.56 µg/mL (≈ 5.21 µM); in [12] it was 0.1 µg/mL (≈ 0.334 µM). The MIC was determined as 0.78 µg/mL (≈ 2.61 µM) in the series on Enterobacter cloacae 963; 3.13 µg/mL (≈ 10.5 µM) in series [13]; 0.2 µg/mL (≈ 0.668 µM) in series [14]; 0.2 µg/mL (≈ 0.668 µM) in series [15]; 0.78 µg/mL (≈ 2.61 µM) in series [16]; 0.2 µg/mL (≈ 0.668 µM) in series [17]. Also, the MIC was 6.25 µg/mL (≈ 20.9 µM) in series [18] (Proteus mirabilis, IFO3849, 18 h); 0.05 µg/mL (≈ 0.167 µM) against Salmonella typhi 901; 0.013 µg/mL (≈ 0.0434 µM) in series [19]; below 0.006 µg/mL in series [20]; 0.025 µg/mL (≈ 0.0835 µM) in series [21]; below 0.006 µg/mL in series [22]. In [1], the “initial velocity of hydrolysis” value was determined as 0.56 µM/min.
